Measurements reported in US20140329766A1, “Prophylactic Compositions for Management of Microbial Infections in Patients with Brain Injury” (UTI LIMITED PARTNERSHIP, priority 2011, published 2014).

Columns and labels:
post-stroke infections = assay: Bacteriological analysis (CFU) of blood, lungs, liver and spleen after MCAO; format: in vivo, mice; details: for bacterial infections at 24 h after MCAO: wild-type mice receiving propranolol or 6-OHDA (FIGS. 44A-44D)
Description: Mice underwent the mid-cerebral artery occlusion (MCAO) model of cerebral ischemia-reperfusion injury as previously described (Connolly, Jr. et al., 1996; Wong et al., 2008). Male mice of 8-12 weeks old were anesthetized by intraperitoneal injection of a mixture of 10 mg/kg xylazine hydrochloride (MTC Pharmaceuticals, Cambridge, ON) and 200 mg/kg ketamine hydrochloride (Rogar/STB, London, ON). Body temperature was maintained at 37° C. using a heating pad and temperature regulator with rectal probe. Mice were randomly divided into 2 groups: (i) sham-operated, and (ii) MCAO-operated. All surgical instruments were sterilized before the surgery. Before any incision, the area was swabbed with ethanol. To induce MCAO, a 10-mm incision was made on the right-hand side of the neck. Then, the common carotid artery, external carotid artery, and internal carotid artery were dissected free. The external carotid artery was further dissected distally, then coagulated and cut to serve as a stump. After applying temporary clamps at the common carotid artery and internal carotid artery, a monofilament with a silicon coating diameter of 0.21-0.23 mm (Doccol Corporation, Redlands, Calif., USA) was inserted into the stump of the external carotid artery. The monofilament then advanced a defined distance (12 mm) so that the distal end of the monofilament came to rest across the origin of the MCA. The stump of external carotid artery was tied off. The wound on the neck of the mouse was sutured and the mouse was then transferred onto a heat pad to maintain its body temperature at 37° C. After 30 mins of occlusion, the monofilament was withdrawn to allow reperfusion to occur. The animal then recovered from the anaesthesia. Rehydration of the mice was performed every 4 h with a subcutaneous injection of electrolytes and glucose. Food pellets softened with water were placed in the cage after surgery as the mice recovered, and access to water was provided. Sham-operated animals were subjected to the initial anaesthetic and neck incision only. The animals were then allowed to recover from anaesthetic. All animals were put onto a 37° C. heat pad, post-surgery, to recover from anaesthesia until euthanized.
(§1) The anaesthetized mice from Example 1 were washed with 70% ethanol under sterile conditions. Blood was collected by cardiac puncture. The lungs, liver and spleen were removed after thoracotomy and homogenized. For determination of colony forming units (CFU), 10 μl of tissue homogenate or blood was serially diluted, plated onto brain heart infusion (BHI) agar plates supplemented with 5% sheep blood (Daylnn Biologicals, Alberta, Canada), incubated at 37° C. for 18 h, and bacterial colonies were counted.
as §1, with “Example 7” for “Example 1”

[1] = format: in vivo; details: post-ischemic Cxcr6gfp/+ mice (FIG. 37)
Description: Body temperature was maintained at 37° C. using a heating pad and temperature regulator with rectal probe. Mice were randomly divided into 2 groups: (i) sham-operated, and (ii) MCAO-operated. All surgical instruments were sterilized before the surgery. Before any incision, the area was swabbed with ethanol. To induce MCAO, a 10-mm incision was made on the right-hand side of the neck. Then, the common carotid artery, external carotid artery, and internal carotid artery were dissected free. The external carotid artery was further dissected distally, then coagulated and cut to serve as a stump. After applying temporary clamps at the common carotid artery and internal carotid artery, a monofilament with a silicon coating diameter of 0.21-0.23 mm (Doccol Corporation, Redlands, Calif., USA) was inserted into the stump of the external carotid artery. The monofilament then advanced a defined distance (12 mm) so that the distal end of the monofilament came to rest across the origin of the MCA. The stump of external carotid artery was tied off. The wound on the neck of the mouse was sutured and the mouse was then transferred onto a heat pad to maintain its body temperature at 37° C. After 30 mins of occlusion, the monofilament was withdrawn to allow reperfusion to occur. The animal then recovered from the anaesthesia. […]

[2] = Brain infarct size after MCAO; format: in vivo, mice; details: systemic propranolol or 6-OHDA (FIG. 36)
hepatic iNKT cells = assay: Spinning disk confocal intravital microscopy of the liver: crawling behaviour of GFP+ (iNKT) cells; format: in vivo, mice; details: post-ischemic Cxcr6gfp/+ mice 24 h after MCAO; for iNKT cell phenotype (cessation of crawling) induced by MCAO: propranolol 30 mg/kg at 4 and 8 h after MCAO, 6-OHDA 250 mg/kg i.p. 3 days prior (FIGS. 32-34)
Description: Murine liver intravital microscopy was performed as taught by Wong et al. (1997, A minimal role for selectins in the recruitment of leukocytes into the inflamed liver microvasculature. J. Clin. Invest. 99: 2782). Briefly, the tail vein of the anesthetized mice was cannulated to administer fluorescently labeled antibodies and/or additional anesthetic as required. Body temperature was maintained at 37° C. using an infrared heat lamp. Mice were placed in a right lateral position on an adjustable microscope stage. A lateral abdominal incision along the costal margin to the midaxillary line was made to exteriorize the liver, and all exposed tissues were moistened with saline-soaked gauze to prevent dehydration.
Cells were tracked using ImageJ software version 1.45 (NIH at http://rsb.info.nih.gov/ij/). Time-lapse videos exported from Volocity were imported as .mov file, and then converted to 8-bit grayscale. Fluorescent cells were adjusted using threshold control, and noise particles less than 2.0 pixels were removed by filter. Movement of cells was measured using manual tracking, and was calculated for each track using ImageJ output spreadsheets. The cell velocity was expressed in distance (μm) per time (min). 30-40 tracks from 10 mins videos of each animal in each experimental group were analyzed.
Excised livers were prepared for in vivo microscopic observation. Briefly, the liver was placed on the pedestal of an inverted microscope and the liver surface was then covered with a small piece of saline-soaked KimWipe to hold the organ in position. The liver microvasculature was visualized using a spinning-disk confocal microscopy and images were acquired with an Olympus IX81 inverted microscope using a ×10/0.40 UplanFL N objective. The microscope was equipped with a confocal light path (WaveFx, Quorum, Guelph, ON, CA) based on a modified Yokogawa CSU-10 head (Yokogawa Electric Corporation, Tokyo, Japan). Cxcr6^gfp/+ mice were used to visualize hepatic iNKT cells. Laser excitation wavelengths (Cobolt, Stockholm, Sweden) were used in rapid succession and visualized with the appropriate long-pass filters (Semrock, Rochester, N.Y.). Typical exposure time for each excitation wavelength was 300 milli-seconds. A 512×512 pixel back-thinned electron-multiplying charge-coupled device camera (C9100-13, Hamamatsu, Bridgewater, N.J.) was used for fluorescence detection. Volocity Acquisition software (Improvision) was used to drive the confocal microscope. […] Behaviors of iNKT cells in the hepatic microvasculature were assessed.
Wildtype mice underwent the MCAO procedure as previously described in Example 1. […] The crawling behaviours of crawling GFP+ cells in livers from sham-operated control mice and post-ischemic mice were observed and quantified using the methods disclosed in Example 2.

iNKT cells [3] = assay: In vitro noradrenalin activation of isolated iNKT cells; format: cell-based, mice
Description: After gentle agitation at 37° C. for 30 min, the concentrate was passed through a 40-μm nylon filter and washed twice with ice-cold PBS (pH 7.4) and centrifuged at 400×g for 10 min. Lymphocytes were purified on a 44%/70% Percoll gradient and were negatively selected with anti-Gr-1 (RB6-8C5; eBioscience), anti-F4/80 (BM8; eBioscience), anti-CD19 (1D3; eBioscience), and anti-CD8a (53-6.7; eBioscience) microbeads and MiniMACS column (Miltenyi Biotech) to remove neutrophils, macrophages, B cells, and CD8+ cells, respectively. A pure iNKT cell population consisting of TCRf3+ and GFP+ cells were sorted. Purity of isolated iNKT cells was >95%. iNKT cells were seeded at 5×10^5 cells into plasma-coated 6 cm clear flat glass bottom dishes and allowed to settle in DMEM containing 10% FCS for 1 h. To examine noradrenalin activation of iNKT cells in vitro, iNKT cells were either pretreated with 400 μM propranolol and then treated with 200 μM noradrenalin or the iNKT cells were subjected to 200 μM noradrenalin alone. The behavior of iNKT cells was visualized and recorded with FluoView FV1000 confocal fluorescence microscope (Olympus). The recorded images were randomized and analyzed by three blinded investigators.

[4] = system: intracellular IFNγ and IL-10 production; assay: Intracellular cytokine analysis by flow cytometry; format: in vivo; details: post-ischemic wild-type mice treated with propranolol (FIG. 48)
Description: For intracellular cytokine analysis, liver single cell suspensions from sham-operated and post-ischemic Cxcr6^gfp/+ mice were stained with PerCP-conjugated anti-CD69, washed with cold FWB, resuspended in Cytofix/Cytoperm (BD Bioscience) for 30 min on ice. Samples were washed in Perm/Wash (BD Bioscience) and then stained with Alexa Fluor 450-conjugated anti-IFNγ (XMG1.2, eBioscience) and PE-conjugated anti-IL-4 (11B11, BD Pharmingen) or PE-conjugated anti-IL-10 (JESS-16E3, eBioscience).

iNKT cells [5] = assay: Localized noradrenalin superfusion on the liver of Cxcr6gfp/+ mice; format: in vivo
Description: Alexa Fluor 647-conjugated rat anti-mouse PECAM-1 (clone 390; 1 μl) purchased from eBioscience (San Diego, Calif., USA) was mixed with the noradrenalin (5 μg; Sigma) to enable visualization of the epicentre of noradrenalin superfusion. Using intravital spinning-disk confocal microscopy, the behavior of iNKT cells was visualized and tracked in the epicentre of, and distant from the localized noradrenalin in the livers of Cxcr6^gfp/+ mice.

[6] = 5 μg, liver of Cxcr6gfp/+ mice (FIGS. 38-40)

## NCCc1cc(O)c(O)cc1O [Formula 6-OHDA, 6-hydroxydopamine]
post-stroke infections
  bacterial infections at 24 h after MCAO: significantly reduced
[1]
  Mortality at 24 h of reperfusion: 50%
[2]
  infarct size in post-ischemic mice: did not alter
Hepatic iNKT cells
  iNKT cell phenotype (cessation of crawling) induced by MCAO: completely inhibited

## CC(C)NCC(O)COc1cccc2ccccc12 (stereo not shown) [propranolol]
post-stroke infections; post-ischemic Cd1d-/- mice (FIG. 46)
  protection from infection (bacterial loads in peripheral blood and lungs): no protection
post-stroke infections
  bacterial infections at 24 h after MCAO: significantly reduced
[2]
  infarct size in post-ischemic mice: did not alter
Hepatic iNKT cells
  iNKT cell phenotype (cessation of crawling) induced by MCAO: reversed
iNKT cells [3]; pretreatment 400 μM propranolol, then 200 μM noradrenalin (FIG. 42)
  noradrenaline-induced behavioral change of iNKT cells in vitro: inhibited
[4]
  intracellular IL-10 versus IFN-γ production: reversed the preference for intracellular IL-10 production back to an intracellular IFN-γ dominant production

## apyrase
Hepatic iNKT cells; treatment just prior to MCAO (FIGS. 29, 30)
  iNKT cell arrest in response to MCAO: no effect

## NC[C@H](O)c1ccc(O)c(O)c1 [noradrenaline]
iNKT cells [5]; 5 μg (FIGS. 38-40)
  crawling behavior of iNKT cells in an area of liver distant from the superfusion: did not alter
iNKT cells [5]; [6]
  crawling iNKT cells in the epicenter of noradrenaline administration: Significantly fewer iNKT cells crawled
  pirouetting iNKT cells in the epicenter of noradrenaline administration: more cells adopted a pirouetting phenotype
iNKT cells [3]; 200 μM noradrenalin alone (FIG. 41)
  iNKT cell morphology in vitro: developed a pseudopod-protruding phenotype

B1: recombinant IL-10: Recombinant IL-10 (Cedarlane), a TH2-type cytokine (protein, UniProt P18893 19-178, looked up)
Interleukin-10: SRGQYSREDNNCTHFPVGQSHMLLELRTAFSQVKTFFQTKDQLDNILLTDSLMQDFKGYLGCQALSEMIQFYLVEVMPQAEKHGPEIKEHLNSLGEKLKTLRMRLRRCHRFLPCENKSKAVEQVKSDFNKLQDQGVYKAMNEFDIFINCIEAYMMIKMKS
post-stroke infections; wild-type mice pretreated i.v. 1 h prior to MCAO, 1 μg/mouse (FIG. 22)
  stroke-induced lung infections (bacterial load in the lungs): increased
